{"source": "patent US11413254B2", "about": "“Application for (2R, 4R)-1,2,4-trihydroxyheptadec-16-yne in preparation of pharmaceutical composition for preventing or treating hepatic injury” (KAOHSIUNG MEDICAL UNIVERSITY, priority 2016, dated 2022)", "key": {"[1]": {"tested_on": "fatty acid liver disease caused by high fat feed", "assay": "Chronic hepatitis of fatty acid liver disease caused by high fat feed, serum liver function indicators", "type": "in vivo, C57BL/6 (B6) mice", "details": "male B6 mice, 100 mg/kg/day TY force fed, high fat feed (60% fat calorie) 18 weeks", "procedure": "Example 5. Chronic hepatitis of fatty acid liver disease caused by high fat feed was treated by TY. 15 male, 8-10 weeks old of C57BL/6 (B6) mice (20-22 g) were randomly divided into 3 groups, 4-5 B6 mice in each group, they were: 1. Healthy control group: fed with normal feed (the percentage of fat calories 5-6%); 2. Negative control group: fed with high fat feed (the percentage of fat calorie 60%) and physiological saline; 3. Experimental group: animals were given the same high fat feed as the Negative control group and force fed with 100 mg/kg/day of TY. 1 week before liver injury was induced by high fat feed, the experimental samples began to be given daily, respectively, drug solvent of the same volume as TY to Groups 1 and 2, and 100 mg/kg/daily of TY to Group 3. After 1 week, Groups 2 and 3 began to be given high fat feed, and continuously to be force fed with the drug solvent of the volume same as TY and 100 mg/kg/day of TY for 18 weeks. The mice began to fast on the 18th week, and 12 hours after fasting, all B6 mice were sacrificed. Prior to being sacrificed, blood was collected from the heart and serum was separated for analysis of the biochemical function of the liver."}, "[2]": {"tested_on": "acute hepatitis caused by alcohol (ethanol)", "assay": "Acute hepatitis caused by alcohol (ethanol), serum liver function indicators", "type": "in vivo", "details": "male Wistar rats, 100 mg/kg/day TY force fed, 50% ethanol", "procedure": "Example 3. The effect of TY on the treatment of acute hepatitis caused by alcohol (ethanol). Nine male Wistar rats (200-250 g) were randomly divided into 3 groups, 3 Wistar rats in each group, they were: 1. Healthy control group: force fed with physiological saline (2.5 mg/kg) of the same volume as TY; 2. Negative control group (ethanol and physiological saline): force fed with physiological saline of the same volume as TY and force fed with 50% ethanol; 3. Experimental group (ethanol and 100 mg/kg/day of TY): force fed 100 mg/kg/day of TY and force fed with 50% ethanol. First, the drug solvent or TY was administered by force feeding once daily, and the first force feeding was defined as the first day. One hour after force feeding on the fourth day, Group 1 was given physiological saline (2.5 mg/kg), Groups 2-3 were given […] 50% ethanol (2.5 mg/kg), respectively. The rats were force fed with ethanol again 12 hours after the first force feeding, and fasted 12 hours after the second force feeding. After being fasted for 12 hours, all Wistar rats were sacrificed. Prior to being sacrificed, blood was collected from the heart and serum was separated for analysis of the biochemical function of the liver."}, "[3]": {"tested_on": "hepatocellular injury and necrosis caused by carbon tetrachloride", "assay": "Hepatocellular injury and necrosis caused by carbon tetrachloride, liver H&E staining", "type": "in vivo", "details": "male Wistar rats, 100 mg/kg/day TY force fed, 20% carbon tetrachloride/olive oil i.p., FIG. 2", "procedure": "Example 2. Hepatocellular injury and necrosis caused by carbon tetrachloride were treated by TY. Nine male Wistar rats (200-250 g) were randomly divided into 3 groups, 3 Wistar rats in each group, they were: 1. Healthy control group: force fed with drug solvent of the same volume as TY and intraperitoneal injection of olive oil (2.5 mg/kg); 2. Negative control group (carbon tetrachloride and physiological saline): force fed with physiological saline and intraperitoneal injection of 20% carbon tetrachloride/olive oil of the same volume as TY; 3. Experimental group (carbon tetrachloride and 100 mg/kg/day of TY): force fed 100 mg/kg/day of TY and intraperitoneal injection of 20% carbon tetrachloride/olive oil. First, the physiological saline or TY was administered by force feeding once daily, and the first force feeding was defined as the first day. One hour after the force feeding on the fourth day, Group 1 was given intraperitoneal injection of olive oil (2.5 mg/kg), Groups 2-3 were given intraperitoneal injection of 20% carbon tetrachloride/olive oil (2.5 mg/kg), respectively. The rats were fasted 12 hours after injection, all Wistar rats were sacrificed 12 hours after fasting. After the rats were sacrificed, livers were collected and soaked in formalin, and stained with H&E staining, then observed and images were taken with a microscope."}, "[4]": {"tested_on": "fatty acid disease induced by high fat feed", "assay": "Hepatocellular injury and abnormalities of fatty acid disease induced by high fat feed, liver H&E staining", "type": "in vivo, C57BL/6 (B6) mice", "details": "male B6 mice, 100 mg/kg/day TY force fed, high fat feed (60% fat calorie) 18 weeks, FIG. 7", "procedure": "Example 7. Hepatocellular injury and abnormalities of fatty acid disease induced by high fat feed were treated with TY. 15 male, 8-10 weeks old of C57BL/6 (B6) mice (20-22 g) were randomly divided into 3 groups, and 4-5 B6 mice in each group, they were: 1. Healthy control group: fed with normal feed (the percentage of fat calories 5-6%); 2. Negative control group: fed with high fat feed (the percentage of fat calorie 60%) and force fed with physiological saline; 3. Experimental group: animals were given the same high fat feed as the Negative control group and force fed with 100 mg/kg/day of TY (high fat feed and TY). 1 week before liver injury was induced by the high fat feed, the experimental samples began to be given daily, respectively, the drug solvent of the same volume as TY to Groups 1 and 2, and 100 mg/kg of TY daily to Group 3. After 1 week, Groups 2 and 3 began to be given high fat feed, and continuously to be force fed with the drug solvent of the same volume as TY and 100 mg/kg/day of TY for 18 weeks. The mice began to fast on the 18th week, and 12 hours after fasting, all B6 mice were sacrificed. After the mice were sacrificed, livers were collected and soaked in formalin, stained with H&E staining, and then observed and images taken with a microscope."}, "[5]": {"tested_on": "acute hepatitis caused by carbon tetrachloride", "assay": "Acute hepatitis caused by carbon tetrachloride, serum liver function indicators", "type": "in vivo", "details": "male Wistar rats, 100 mg/kg/day TY force fed, 20% carbon tetrachloride/olive oil i.p. on fourth day", "procedure": "Example 1. The effect of TY for the treatment of acute hepatitis caused by carbon tetrachloride was tested. Nine male Wistar rats (200-250 g) were randomly divided into 3 groups, 3 Wistar rats in each group, they were: 1. Healthy control group: force fed with drug solvent and intraperitoneal injection of olive oil (2.5 mg/kg) of the same volume as TY; 2. Negative control group (carbon tetrachloride and physiological saline): force fed with physiological saline and intraperitoneal injection of 20% carbon tetrachloride/olive oil of the same volume as TY; 3. Experimental group (carbon tetrachloride and 100 mg/kg/day of TY): force fed 100 mg/kg/day of TY and intraperitoneal injection of 20% carbon tetrachloride/olive oil. First, the drug solvent or TY was administered by force feeding once daily and the first force feeding was defined as the first day. One hour after force feeding on the fourth day, Group 1 was given intraperitoneal injection of olive oil (2.5 mg/kg), Groups 2-3 were given intraperitoneal injection of 20% carbon tetrachloride/olive oil (2.5 mg/kg), fasted 12 hours after injection, all Wistar rats were sacrificed 12 hours after fasting. Prior to being sacrificed, blood was collected from the heart and serum was separated for analysis of the biochemical function of the liver."}, "[6]": {"tested_on": "hepatocellular injury and abnormalities caused by alcohol (ethanol)", "assay": "Hepatocellular injury and abnormalities caused by alcohol (ethanol), liver H&E staining", "type": "in vivo", "details": "male Wistar rats, 100 mg/kg/day TY force fed, 50% ethanol, FIG. 4", "procedure": "Example 4. Hepatocellular injury and abnormalities caused by alcohol (ethanol) were treated by TY. Nine male Wistar rats (200-250 g) were randomly divided into 3 groups, 3 Wistar rats in each group, they were: 1. Healthy control group: force fed with drug solvent of the same volume as TY and force fed with physiological saline (2.5 mg/kg); 2. Negative control group (ethanol and physiological saline): force fed with physiological saline of the same volume as TY and force fed with 50% ethanol; 3. Experimental group (Ethanol and 100 mg/kg/day of TY): force fed 100 mg/kg/day of TY and force fed with 50% ethanol. First, food solvent or TY was administered by force feeding once daily, and the first force feeding was defined as the first day. One hour after force feeding on the fourth day, Group 1 was given physiological saline (2.5 mg/kg), Groups 2-3 were given 50% ethanol injection (2.5 mg/kg), respectively. The rats were force fed with ethanol again 12 hours after the first force feeding, and fasted 12 hours after the second force feeding. After being fasted for 12 hours, all Wistar rats were sacrificed. After the rats were sacrificed, livers were collected and soaked in formalin, and stained with H&E staining, then observed and images taken with a microscope."}, "[7]": {"tested_on": "fatty acid liver disease induced by high fat feed", "assay": "Serum triglyceride level of mice with fatty acid liver disease induced by high fat feed", "type": "in vivo, C57BL/6 (B6) mice", "details": "male B6 mice, 100 mg/kg/day TY force fed, high fat feed (60% fat calorie) 18 weeks, FIG. 6", "excerpt": "Example 6. TY decreased serum triglyceride level of the mice with fatty acid liver disease induced by high fat feed. 15 male, 8-10 weeks old of C57BL/6 (B6) mice (20-22 g) were randomly divided into 3 groups, 4-5 B6 mice in each group, and they were: 1. Healthy control group: fed with normal feed (the percentage of fat calories 5-6%); 2. Negative control group: fed with high fat feed (the percentage of fat calorie 60%) and force fed with physiological saline (high fat feed and physiological saline); 3. Experimental group: animals were given the same high fat feed as the Negative control group and force fed with 100 mg/kg/day of TY (high fat feed and TY). 1 week before liver injury was induced by the high fat feed, the experimental samples began to be given daily, respectively, drug solvent of the same volume as TY to Groups 1 and 2, and 100 mg/kg of TY daily to Group 3. after 1 week, Groups 2 and 3 began to be given high fat feed, and continuously to be force fed with the drug solvent of the same volume as TY and 100 mg/kg/day of TY for 18 weeks. The mice began to fast on the 18th week, and 12 hours after fasting, all B6 mice were sacrificed. Prior to being sacrificed, blood was collected from the heart and serum was separated for analysis of the serum triglyceride level."}}, "data": [{"compound": "C#CCCCCCCCCCCC[C@@H](O)C[C@@H](O)CO", "note": "[TY, (2R,4R)-1,2,4-trihydroxy heptadec-16-yne]", "values": [{"measurement": "liver function indicator GOT/AST increased by the high-fat feed", "setting": "[1]; FIG. 5A", "value": "significantly decreased"}, {"measurement": "liver function indicator GPT/ALT increased by the high-fat feed", "setting": "[1]; FIG. 5B", "value": "significantly decreased"}, {"measurement": "liver function indicator GOT/AST increased by ethanol", "setting": "[2]; FIG. 3A", "value": "significantly decreased"}, {"measurement": "liver function indicator GPI/ALT increased by ethanol", "setting": "[2]; FIG. 3B", "value": "significantly decreased"}, {"measurement": "hepatocellular necrosis near the central vein caused by carbon tetrachloride (H&E staining)", "setting": "[3]", "value": "capable of effectively reducing hepatocellular necrosis near the central vein"}, {"measurement": "liver injury and tissue abnormalities caused by the high fat feed (H&E staining)", "setting": "[4]", "value": "capable of reducing the liver injury and tissue abnormalities"}, {"measurement": "liver function indicator GOT/AST increased by carbon tetrachloride", "setting": "[5]; FIG. 1A", "value": "significantly decreased"}, {"measurement": "liver function indicator GPI/ALT increased by carbon tetrachloride", "setting": "[5]; FIG. 1B", "value": "significantly decreased"}, {"measurement": "liver injury and tissue abnormalities caused by ethanol (H&E staining)", "setting": "[6]", "value": "capable of reducing the liver injury and tissue abnormalities"}, {"measurement": "serum triglyceride level increased by the high-fat diet", "setting": "[7]", "value": "significantly decreased"}]}]}
